# Measured values taken from patent US7537911B2, “ATM related kinase, ATX, nucleic acids encoding same and methods of use” (Burnham Institute for Medical Research, priority 2002, dated 2009).
# Tests used:
# U2OS cells [1] = test: Clonogenic survival assay of oligonucleotide-transfected cells; type: cell-based, human; conditions: for reduction of basal level of colony outgrowth (basal clonogenic activity): non-irradiated, 10 days in culture
# U2OS cells [2] = test: Cell-cycle distribution by flow cytometry; type: cell-based, human; conditions: for cell-cycle distribution after IR exposure: 24 h post-irradiation
# Description: To test this possibility, U2OS cells were pre-treated with S or AS oligonucleotides, exposed to IR, and cell-cycle distributions at 24 h post-irradiation were determined.
# p53 = p53 Ser-15 phosphorylation and p53 accumulation (immunoblot); type: cell-based, human
# Description: A major mediator of stress-induced signaling in mammalian cells is the tumor suppressor protein, p53 (Ko and Prives, Genes and Development 10:1054-1072, (1996); Ryan et al., Curr. Opin. Cell Biol. 13:332-337 (2001)). ATX phosphorylates p53 on Ser-15 (FIG. 1C), a site implicated in the regulation of p53 stability and transcriptional activity (Dumaz and Meek, Curr. Opin. Cell Biol. 13:225-231 (1999); Zhang and Xiong, Science 292:1910-1915 (2001)). Therefore, the possibility that these two proteins are functionally linked during cellular stress responses was investigated. U2OS cells were transiently transfected with a HA-ATXWT or HA-ATXKI expression plasmid, together with a GFP-encoding plasmid to allow for FACS-based enrichment of the transfected cells. The GFP+ cells were then examined for IR-induced stabilization of p53, as well as for specific phosphorylation of this protein on Ser-15. […] In contrast, overexpression of ATXWT enhanced both of these responses in cells exposed to IR.
# The recognition of UV light-induced DNA damage occurs primarily during S phase, when pyrimidine dimers and other bulky lesions interfere with replication fork progression (Friedberg, DNA Repair and Mutagenesis (Washington, D.C., ASM Press) (1995); Lindahl and Wood, Cell 103:1121-1131 (1999)).
# In order to further define the potential linkage between DNA replicational stress and ATX, the response of AS-treated cells to 5-fluorouracil (5-FU), an S-phase specific cytotoxic agent was examined (Danenberg et al., Seminars in Oncology. 26:621-631 (1999); Grem, Investigational New Drugs 18:299-313 (2000)).
# Changes in phosphorylation at Ser-15 are typically accompanied by alterations in the expression of the p53 protein, which complicates the interpretation of results obtained by immunoblotting of whole cell extracts with phospho-Ser-15-specific antibodies. In order to confirm that reduced ATX expression interferes with stress-induced Ser-15 phosphorylation, U2OS cells were transfected with either the S or AS oligonucleotide, and then were pretreated with the proteasome inhibitor, LLnV, to stabilize p53. In the presence of LLnV, the p53 level in each test population was relatively unaffected by UV exposure (data not shown). However, the ratio of phospho-Ser-15 to total p53 protein was increased by UV irradiation of both the mock-transfected and S oligonucleotide-treated cells.
# ATX [3] = test: ATX protein level in oligonucleotide-treated cells (immunoblot); type: cell-based, human; conditions: U2OS
# hChk2 = test: IR-dependent phosphorylation of hChk2 (immunoblot); type: cell-based, human; conditions: U2OS
# Description: Recent findings point toward ATM as a critical upstream regulator of the activity of the checkpoint kinase, hChk2, in IR-damaged cells (Ahn et al., Cancer Res. 60:5934-5936 (2000); Melchionna et al., Nat. Cell Biol. 2:762-765 (2000)). To determine whether ATX was also involved in hChk2 activation, the effect of AS oligonucleotide treatment on the IR-dependent phosphorylation of hChk2 was examined. […] Moreover, the differential effects of AS treatment on p53 expression versus hChk2 activation argue against the possibility that AS exposure leads to nonspecific inhibition of checkpoint signaling responses to IR-induced DNA damage.
# ATX [4] = target: T1, ATX (Homo sapiens, UniProt Q96Q15); test: Immune complex kinase assay, immunoprecipitated HA-ATXWT, GST-p53 1-70 substrate; type: biochemical; conditions: pretreatment of immunoprecipitated HA-ATXWT; GST-p53 1-70 phosphorylation; read-out: drug concentration required for 50% inhibition (IC50) of ATX activity in vitro
# T1 construct: expressed in transfected cells; host or cells: HEK 293T, pcDNA3.1, immunoprecipitated with anti-HA antibody
# T1 sequence (Q96Q15 141-3661 S144C): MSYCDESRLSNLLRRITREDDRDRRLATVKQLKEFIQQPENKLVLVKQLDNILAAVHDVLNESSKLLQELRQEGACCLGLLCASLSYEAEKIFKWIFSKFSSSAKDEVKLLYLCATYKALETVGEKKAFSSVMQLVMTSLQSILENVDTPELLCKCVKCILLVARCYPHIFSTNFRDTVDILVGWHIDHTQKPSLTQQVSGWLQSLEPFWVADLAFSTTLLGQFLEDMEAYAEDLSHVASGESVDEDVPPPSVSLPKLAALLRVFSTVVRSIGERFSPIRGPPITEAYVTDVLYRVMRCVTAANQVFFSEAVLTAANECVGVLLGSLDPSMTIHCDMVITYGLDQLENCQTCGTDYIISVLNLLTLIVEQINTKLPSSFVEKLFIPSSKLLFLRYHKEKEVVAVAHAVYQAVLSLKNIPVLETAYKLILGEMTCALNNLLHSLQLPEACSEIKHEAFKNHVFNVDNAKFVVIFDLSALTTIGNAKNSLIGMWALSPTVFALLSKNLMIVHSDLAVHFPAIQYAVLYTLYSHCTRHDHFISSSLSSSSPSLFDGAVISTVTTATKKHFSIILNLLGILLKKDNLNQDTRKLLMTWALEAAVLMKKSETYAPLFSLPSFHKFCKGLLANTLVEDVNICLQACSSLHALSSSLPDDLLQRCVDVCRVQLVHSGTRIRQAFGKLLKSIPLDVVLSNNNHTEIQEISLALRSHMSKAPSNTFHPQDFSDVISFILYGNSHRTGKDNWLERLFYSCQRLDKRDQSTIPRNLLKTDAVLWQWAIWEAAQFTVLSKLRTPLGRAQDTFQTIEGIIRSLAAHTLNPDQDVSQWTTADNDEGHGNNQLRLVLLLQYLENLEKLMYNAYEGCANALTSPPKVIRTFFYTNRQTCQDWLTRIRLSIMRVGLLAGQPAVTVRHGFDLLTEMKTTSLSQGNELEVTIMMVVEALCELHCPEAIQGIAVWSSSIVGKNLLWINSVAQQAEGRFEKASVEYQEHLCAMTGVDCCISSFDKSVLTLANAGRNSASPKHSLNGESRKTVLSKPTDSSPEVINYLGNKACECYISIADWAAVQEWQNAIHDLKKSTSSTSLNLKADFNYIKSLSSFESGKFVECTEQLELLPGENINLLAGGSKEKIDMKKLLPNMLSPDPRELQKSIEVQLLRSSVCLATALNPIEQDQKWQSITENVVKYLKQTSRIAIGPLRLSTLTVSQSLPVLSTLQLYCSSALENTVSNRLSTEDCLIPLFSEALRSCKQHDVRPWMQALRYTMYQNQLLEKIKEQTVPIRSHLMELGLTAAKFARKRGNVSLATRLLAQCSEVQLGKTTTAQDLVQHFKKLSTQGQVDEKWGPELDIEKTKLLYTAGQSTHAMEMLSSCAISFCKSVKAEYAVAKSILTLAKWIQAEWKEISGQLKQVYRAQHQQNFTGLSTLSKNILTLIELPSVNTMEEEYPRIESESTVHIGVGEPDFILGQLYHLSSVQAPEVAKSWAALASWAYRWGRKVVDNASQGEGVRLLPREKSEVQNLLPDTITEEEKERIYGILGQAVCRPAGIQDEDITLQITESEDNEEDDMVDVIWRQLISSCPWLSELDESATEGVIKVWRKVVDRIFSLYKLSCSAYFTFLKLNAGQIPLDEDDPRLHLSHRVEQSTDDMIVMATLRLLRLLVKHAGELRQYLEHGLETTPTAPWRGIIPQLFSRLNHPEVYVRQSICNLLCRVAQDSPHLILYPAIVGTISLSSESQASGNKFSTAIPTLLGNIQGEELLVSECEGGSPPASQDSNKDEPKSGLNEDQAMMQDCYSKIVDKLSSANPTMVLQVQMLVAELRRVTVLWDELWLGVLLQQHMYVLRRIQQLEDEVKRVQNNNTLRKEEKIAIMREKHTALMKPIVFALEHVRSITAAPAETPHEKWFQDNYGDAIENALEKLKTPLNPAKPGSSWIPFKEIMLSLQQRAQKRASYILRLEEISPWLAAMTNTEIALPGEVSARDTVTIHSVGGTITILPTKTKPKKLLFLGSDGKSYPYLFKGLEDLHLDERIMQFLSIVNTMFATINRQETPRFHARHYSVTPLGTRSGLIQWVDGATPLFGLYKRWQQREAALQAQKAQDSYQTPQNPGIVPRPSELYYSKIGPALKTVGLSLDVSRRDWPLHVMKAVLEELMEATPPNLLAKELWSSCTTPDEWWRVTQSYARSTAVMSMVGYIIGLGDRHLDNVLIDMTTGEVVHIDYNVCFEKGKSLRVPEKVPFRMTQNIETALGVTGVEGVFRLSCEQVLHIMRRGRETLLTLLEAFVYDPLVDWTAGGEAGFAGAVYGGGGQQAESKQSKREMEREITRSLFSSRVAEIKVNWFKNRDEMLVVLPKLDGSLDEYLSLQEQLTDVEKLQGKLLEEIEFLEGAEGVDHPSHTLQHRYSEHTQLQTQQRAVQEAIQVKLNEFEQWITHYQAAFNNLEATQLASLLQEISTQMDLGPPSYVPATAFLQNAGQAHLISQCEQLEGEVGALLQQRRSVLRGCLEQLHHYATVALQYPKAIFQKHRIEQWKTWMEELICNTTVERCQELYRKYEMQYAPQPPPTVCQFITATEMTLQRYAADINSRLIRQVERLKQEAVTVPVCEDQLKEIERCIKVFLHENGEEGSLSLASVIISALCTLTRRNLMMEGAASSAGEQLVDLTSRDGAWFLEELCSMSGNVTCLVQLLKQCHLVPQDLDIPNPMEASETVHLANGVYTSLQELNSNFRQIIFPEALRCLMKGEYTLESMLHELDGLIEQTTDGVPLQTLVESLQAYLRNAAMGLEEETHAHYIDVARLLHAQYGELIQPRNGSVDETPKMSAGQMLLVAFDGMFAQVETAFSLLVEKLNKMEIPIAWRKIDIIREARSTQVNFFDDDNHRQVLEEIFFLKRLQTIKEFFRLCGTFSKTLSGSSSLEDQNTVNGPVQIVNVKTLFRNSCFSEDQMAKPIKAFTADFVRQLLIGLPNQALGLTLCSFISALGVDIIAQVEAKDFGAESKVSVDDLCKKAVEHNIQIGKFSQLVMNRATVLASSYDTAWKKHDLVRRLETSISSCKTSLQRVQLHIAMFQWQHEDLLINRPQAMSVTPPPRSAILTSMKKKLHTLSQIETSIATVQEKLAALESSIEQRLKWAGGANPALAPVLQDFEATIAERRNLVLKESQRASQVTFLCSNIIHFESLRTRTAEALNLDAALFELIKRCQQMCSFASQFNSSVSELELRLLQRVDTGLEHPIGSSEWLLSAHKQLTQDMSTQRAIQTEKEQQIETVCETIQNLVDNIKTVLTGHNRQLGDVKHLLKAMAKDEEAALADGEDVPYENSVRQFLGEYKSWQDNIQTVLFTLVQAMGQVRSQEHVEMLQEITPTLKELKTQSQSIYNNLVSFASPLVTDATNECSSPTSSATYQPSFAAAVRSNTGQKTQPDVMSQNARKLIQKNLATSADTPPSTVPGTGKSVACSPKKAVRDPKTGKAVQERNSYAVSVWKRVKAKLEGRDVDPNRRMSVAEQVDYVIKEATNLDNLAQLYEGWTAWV
compound,measurement,setting,value
"5′-GAGACAGGAGGGAGCTTGCT-3′ (all phosphorothioate, sugars by position and methylation of C not given here) [S oligonucleotide, reference compound]",reduction of basal level of colony outgrowth (basal clonogenic activity),U2OS cells [1],25%
same,cell-cycle distribution after IR exposure,U2OS cells [2],accumulated in both G1 and G2/M phases
"O=c1[nH]cc(F)c(=O)[nH]1 [5-FU, 5-fluorouracil, reference compound]",p53 Ser-15 phosphorylation,p53; U2OS treated with the drug,not accompanied by an increase in Ser-15 phosphorylation
same,p53 expression,p53; U2OS treated with the drug,increased p53 expression to levels similar to those observed in UV-irradiated cells
"5′-AGCAAGCTCCCTCCTGTCTC-3′ (phosphorothioate backbone, further chemistry not given here) [AS oligonucleotide, antisense phosphorothioate oligonucleotide complementary to ATX nucleotides 210-229]",sensitivity to suppressive effects of IR and UV on clonogenic survival,U2OS cells [1]; IR (FIG. 2C) and UV,significantly more sensitive
same,reduction of basal level of colony outgrowth (basal clonogenic activity),U2OS cells [1],75%
same,expression levels of control proteins ATM and PLC-γ1,ATX [3]; immunoblot,no significant change
same,reduction in ATX protein,ATX [3]; over 10 independent trials,50-90%
same,level of p53 induction by 5-FU,p53; AS-treated U2OS versus S-treated,identical to that observed in their S-treated counterparts
same,stoichiometric increase in Ser-15 phosphorylation triggered by UV-induced stress,p53; U2OS pretreated with proteasome inhibitor LLnV,effectively blocked
same,phosphorylation and stabilization of p53 induced by IR exposure,"p53; U2OS, IR",reduced both the phosphorylation and stabilization of p53
same,Ser-15 phosphorylation and p53 protein accumulation in UV-damaged cells,"p53; U2OS, UV",severely impaired
same,cell-cycle distribution after IR exposure,U2OS cells [2],arrested primarily in G2/M phase
same,cell-cycle distribution in the absence of IR,U2OS cells [2]; compared to S oligonucleotide-treated cells,"reduction in the percentage of G1 phase cells, and a concomitant accumulation of G2/M phase cells"
same,IR-dependent phosphorylation of hChk2,hChk2,retained the ability to phosphorylate hChk2
COC[C@H]1OC(=O)c2coc3c2[C@@]1(C)C1=C(C3=O)[C@@H]2CCC(=O)[C@@]2(C)C[C@H]1OC(C)=O [wortmannin],IC50,ATX [4],10 to 100 nM
